IC50 data for 26 molecules are collected here from US20100273816A1, “Quinazoline Compounds” (priority 2007, published 2010).

A value given as a limit tells only on which side of the number the result lay.

One assay deals with T1, human LXRβ (Homo sapiens, UniProt P55055).
T1 construct: biotin (biotinylated); made in house; host or cells: E. coli (crude extract)
T1 sequence (P55055 1-460): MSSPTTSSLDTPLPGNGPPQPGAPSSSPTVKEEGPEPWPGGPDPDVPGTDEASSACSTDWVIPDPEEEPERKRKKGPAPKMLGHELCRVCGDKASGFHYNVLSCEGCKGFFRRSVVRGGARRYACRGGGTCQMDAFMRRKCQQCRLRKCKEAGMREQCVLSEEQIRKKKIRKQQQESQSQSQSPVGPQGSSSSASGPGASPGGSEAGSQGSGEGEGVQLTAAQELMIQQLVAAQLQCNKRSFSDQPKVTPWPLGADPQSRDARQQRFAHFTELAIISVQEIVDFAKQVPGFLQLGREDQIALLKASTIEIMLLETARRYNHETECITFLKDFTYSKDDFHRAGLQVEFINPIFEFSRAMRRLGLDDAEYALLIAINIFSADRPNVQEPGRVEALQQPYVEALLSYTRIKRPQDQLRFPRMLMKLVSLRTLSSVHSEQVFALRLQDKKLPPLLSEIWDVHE
Put plainly: Ligand-binding test procedure for human LXRβ (3H T0901317 tracer, flash plates). The following applies: biotinylated hLXRβ from E. coli extract, +4° C. over night, read-out: hLXRB binding assay Mean IC50. The protocol: I. Ligand-Binding Test Procedure for Human LXRβ.
(§1) Buffer: 100 mM KCl, 100 mM TRIS (pH 7.4 at +4° C.), 8.6% glycerol, 0.1 mM PMSF*, 2 mM MTG*, 0.2% CHAPS (* not used in wash buffer)
Receptor source: E. coli extract from cells expressing biotinylated hLXRβ. Extract was made in a similar buffer as above, but with 50 mM TRIS.
(§2) Washed streptavidin and coated flash plates with wash buffer.
(§3) Diluted receptor extract to give Bmax ˜4000 cpm and add to the wells.
(§4) Wrapped the plates in aluminum foil and stored them at +4° C. over night.
(§5) Made a dilution series in DMSO of the test ligands.
(§6) Made a 5 nM solution of the radioactive tracer in buffer.
Mixed 250 μl diluted tracer with 50 of the test ligand from each concentration of the dilution series.
(§7) Washed the receptor-coated flash plates.
(§8) Added 200 μl per well of the ligand/radiolabel mixture to the receptor-coated flash plates.
(§9) Wrapped the plates in aluminum foil and incubate at +4° C. over night.
(§10) Aspirated wells, and wash the flashed plates. Sealed the plate.
(§11) Measured the remaining radioactivity in the plate.

Another assay has as its target T2, human LXRα (Homo sapiens, UniProt Q13133).
T2 construct: biotin (biotinylated); made in house; host or cells: E. coli (crude extract)
T2 sequence (Q13133 1-447): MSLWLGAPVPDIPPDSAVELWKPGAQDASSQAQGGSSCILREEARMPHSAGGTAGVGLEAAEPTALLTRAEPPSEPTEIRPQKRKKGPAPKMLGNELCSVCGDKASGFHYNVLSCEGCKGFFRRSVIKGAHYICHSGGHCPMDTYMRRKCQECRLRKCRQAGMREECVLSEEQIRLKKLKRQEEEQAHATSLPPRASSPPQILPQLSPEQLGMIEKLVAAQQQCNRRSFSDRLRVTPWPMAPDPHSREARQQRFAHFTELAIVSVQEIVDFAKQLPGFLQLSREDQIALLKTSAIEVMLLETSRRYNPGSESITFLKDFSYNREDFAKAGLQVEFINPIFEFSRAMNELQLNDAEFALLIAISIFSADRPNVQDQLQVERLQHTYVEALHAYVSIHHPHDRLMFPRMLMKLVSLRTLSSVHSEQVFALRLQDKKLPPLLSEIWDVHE
Kind of assay: Ligand-binding test procedure for human LXRα (3H T0901317 tracer, flash plates). The following applies: biotinylated hLXRα from E. coli extract, +4° C. over night, read-out: hLXRa binding assay Mean IC50. The protocol: II. Ligand-Binding Test Procedure for Human LXRα.
as §1
Receptor source: E. coli extract from cells expressing biotinylated hLXRα. Extract was made in a similar buffer as above, but with 50 mM TRIS.
as §2, §3, §4, §5, §6
Mixed 250 μl diluted tracer with 5 μl of the test ligand from each concentration of the dilution series.
as §7, §8, §9, §10, §11

One may read the IC50 as the concentration at which inhibition is half-maximal. On to `CS(=O)(=O)c1cccc(COc2ccc(F)c(-c3ncnc4c(Cl)cccc34)c2)c1` [Example 66, 8-chloro-4-(2-fluoro-5-{[3-(methylsulfonyl)benzyl)oxy]phenyl}quinazoline], for which the IC50 at human LXRβ came to 99 nM; on human LXRα, 1540 nM. As for `CS(=O)(=O)c1cccc(Oc2ccc(F)c(-c3ncnc4c(Cl)cccc34)c2)c1` [Example 75, 8-chloro-4-{2-fluoro-5-[3-(methylsulfonyl)phenoxy]phenyl}quinazoline], the IC50 on human LXRβ was found to be 20 nM; at human LXRα, 718 nM. The corresponding values for `COCCCS(=O)(=O)c1cccc(Oc2cccc(-c3ncnc4c(C(F)(F)F)cccc34)c2)c1` [Example 7, 4-(3-{3-[(3-methoxypropyl)sulfonyl]phenoxy}phenyl)-8-(trifluoromethyl)quinazoline] are 651 nM and 4990 nM.

In the case of `Cc1nc(-c2cc(Oc3cccc(S(=O)(=O)C(C)C)c3)ccc2Cl)c2cccc(C(F)(F)F)c2n1` [Example 60, 4-{2-chloro-5-[3-(isopropylsulfonyl)phenoxy]phenyl}-2-methyl-8-(trifluoromethyl)quinazoline], the IC50 at human LXRβ was determined as 16 nM; on human LXRα it was 524 nM.

Turning to `CS(=O)(=O)c1cc(F)cc(Oc2ccc(F)c(-c3ncnc4c(Cl)cccc34)c2)c1` [Example 64, 8-chloro-4-{2-fluoro-5-[3-fluoro-5-(methylsulfonyl)phenoxy]phenyl}quinazoline], the 50% inhibitory concentration (IC50) on human LXRβ was determined as 81 nM; on human LXRα it was 1830 nM. In the case of `O=S(=O)(CCCO)c1cc(Cl)cc(Oc2cccc(-c3ncnc4c(C(F)(F)F)cccc34)c2)c1` [Example 9, 3-[(3-chloro-5-{3-[8-(trifluoromethyl)quinazolin-4-yl]phenoxy}phenyl)sulfonyl]propan-1-ol], the half-inhibitory concentration (IC50) at human LXRα was over 1000 nM. As to `CCS(=O)(=O)c1cccc(Oc2ccc(F)c(-c3ncnc4c(Cl)cccc34)c2)c1` [Example 67, 8-chloro-4-{2-fluoro-5-[3-(ethylsulfonyl)phenoxy]phenyl}quinazoline], the IC50 on human LXRβ is 36 nM; on human LXRα, 712 nM. The corresponding values for `CCS(=O)(=O)c1cccc(Oc2ccc(Cl)c(-c3ncnc4c(C(F)(F)F)cccc34)c2)c1` [Example 50, 4-{2-chloro-5-[3-(ethylsulfonyl)phenoxy]phenyl}-8-(trifluoromethyl)quinazoline] are 5 nM and 236 nM. Regarding `CCCc1nc(-c2cccc(-c3cccc(S(C)(=O)=O)c3)c2)c2cccc(C(F)(F)F)c2n1` [Example 41, 4-[3′-(methylsulfonyl)biphenyl-3-yl]-2-propyl-8-(trifluoromethyl)quinazoline], the IC50 on human LXRβ was 175 nM; at human LXRα it was over 1000 nM. Turning to `Cc1nc(-c2cc(Oc3cc(F)cc(S(C)(=O)=O)c3)ccc2Cl)c2cccc(C(F)(F)F)c2n1` [Example 61, 4-{2-chloro-5-[3-fluoro-5-(methylsulfonyl)phenoxy]phenyl}-2-methyl-8-(trifluoromethyl)quinazoline], the IC50 was 49 nM on human LXRβ and 1790 nM at human LXRα.

Consider `CC(C)S(=O)(=O)c1ccc(Oc2cccc(-c3ncnc4c(C(F)(F)F)cccc34)c2)cc1` [Example 13, 4-{3-[4-(isopropylsulfonyl)phenoxy]phenyl}-8-(trifluoromethyl)quinazoline], for which the IC50 on human LXRβ is 1540 nM; on human LXRα, over 1000 nM.

Take `CCS(=O)(=O)c1cccc(Oc2cccc(-c3ncnc4c(C(F)(F)F)cccc34)c2)c1` [Example 5, 4-{3-[3-(ethylsulfonyl)phenoxy]phenyl}-8-(trifluoromethyl)quinazoline]: the IC50 on human LXRβ was 101 nM; at human LXRα, 1570 nM. Turning to `CS(=O)(=O)c1cccc(COc2cccc(-c3ncnc4c(C(F)(F)F)cccc34)c2)c1` [Example 25, 4-(3-{[3-(methylsulfonyl)benzyl]oxy}phenyl)-8-(trifluoromethyl)quinazoline], the IC50 on human LXRβ turned out to be 285 nM; at human LXRα, 2830 nM. As to `O=S(=O)(CCCO)c1cccc(Oc2ccc(F)c(-c3ncnc4c(Cl)cccc34)c2)c1` [Example 73, 3-({3-[3-(8-chloroquinazolin-4-yl)-4-fluorophenoxy]phenyl}sulfonyl)propan-1-ol], the results for the IC50 at human LXRβ and on human LXRα were 182 nM and 2520 nM, respectively. For the molecule `CCCS(=O)(=O)c1cccc(Oc2cccc(-c3ncnc4c(C(F)(F)F)cccc34)c2)c1` [Example 15, 4-{3-[3-(propylsulfonyl)phenoxy]phenyl}-8-(trifluoromethyl)quinazoline], the IC50 on human LXRβ is 449 nM; at human LXRα, 4420 nM. On to `CC(C)S(=O)(=O)c1cccc(Oc2ccc(F)c(-c3ncnc4c(C(F)(F)F)cccc34)c2)c1` [Example 54, 4-{2-fluoro-5-[3-(isopropylsulfonyl)phenoxy]phenyl}-8-(trifluoromethyl)quinazoline], for which the IC50 on human LXRβ stood at 5 nM; at human LXRα, 176 nM. Consider `CS(=O)(=O)c1cccc(Oc2ccc(F)c(-c3ncnc4c(C(F)(F)F)cccc34)c2)c1` [Example 52, 4-{2-fluoro-5-[3-(methylsulfonyl)phenoxy]phenyl}-8-(trifluoromethyl)quinazoline], for which the half-maximal inhibitory concentration (IC50) on human LXRβ stood at 14 nM; on human LXRα it was 284 nM. The corresponding values for `CC(C)(C(=O)O)c1ccc(COc2cccc(-c3ncnc4c(C(F)(F)F)cccc34)c2)cc1` [Example 44, 2-methyl-2-[4-({3-[8-(trifluoromethyl)quinazolin-4-yl]phenoxy}methyl)phenyl]propanoic acid] are over 1000 nM and over 1000 nM. Turning to `CCCS(=O)(=O)c1cc(Cl)cc(Oc2cccc(-c3ncnc4c(C(F)(F)F)cccc34)c2)c1` [Example 8, 4-{3-[3-chloro-5-(propylsulfonyl)phenoxy]phenyl}-8-(trifluoromethyl)quinazoline], the half-inhibitory concentration (IC50) at human LXRβ and at human LXRα was over 1000 nM each time. Turning to `O=C(O)Cc1ccc(COc2cccc(-c3ncnc4c(C(F)(F)F)cccc34)c2)cc1` [Example 45, [4-({3-[8-(trifluoromethyl)quinazolin-4-yl]phenoxy}methyl)phenyl]acetic acid], the IC50 on human LXRβ was 5290 nM; on human LXRα, over 1000 nM.

Take `Cc1nc(-c2cccc(-c3ccc(S(C)(=O)=O)cc3)c2)c2cccc(C(F)(F)F)c2n1` [Example 38, 4-(4′-Methanesulfonyl-biphenyl-3-0)-2-methyl-8-trifluoromethyl-quinazoline]: the IC50 on human LXRβ was 6270 nM.

Take `CS(=O)(=O)c1cccc(Oc2cccc(-c3ncnc4c(C(F)(F)F)cccc34)c2)c1` [Example 4, 4-{3-[3-(Methylsulfonyl)phenoxy]phenyl}-8-(trifluoromethyl)quinazoline]: the IC50 at human LXRβ was found to be 151 nM; at human LXRα, 1820 nM.

On to `CS(=O)(=O)c1cccc(-c2cccc(-c3nc(C4CC4)nc4c(C(F)(F)F)cccc34)c2)c1` [Example 76, 2-cyclopropyl-4-[3′-(methylsulfonyl)biphenyl-3-yl]-8-(trifluoromethyl)quinazoline], for which the IC50 is 153 nM on human LXRβ and 714 nM at human LXRα. Turning to `CC(C)S(=O)(=O)c1cccc(Oc2cccc(-c3ncnc4c(C(F)(F)F)cccc34)c2)c1` [Example 6, 4-{3-[3-(isopropylsulfonyl)phenoxy]phenyl}-8-(trifluoromethyl)quinazoline], the figures for the IC50 at human LXRβ and at human LXRα were 63 nM and 1020 nM, respectively. For `CCS(=O)(=O)c1ccc(Oc2cccc(-c3ncnc4c(C(F)(F)F)cccc34)c2)cc1` [Example 11, 4-{3-[4-(ethylsulfonyl)phenoxy]phenyl}-8-(trifluoromethyl)quinazoline], the IC50 on human LXRβ is 2240 nM; at human LXRα, over 1000 nM.

For the molecule `CS(=O)(=O)c1ccc(Oc2cccc(-c3ncnc4c(C(F)(F)F)cccc34)c2)cc1` [Example 10, 4-{3-[4-(methylsulfonyl)phenoxy]phenyl}-8-(trifluoromethyl)quinazoline], the IC50 on human LXRβ is 3620 nM; at human LXRα, 26100 nM.
